Reference: ChEMBL document CHEMBL5465560, “Selectivity Literature for EUbOPEN Chemogenomic Library” (2024)

Assays:
[1] = target: Hepatocyte growth factor receptor (Homo sapiens, UniProt P08581); experiment: (§1) Selectivity interaction (ProQinase) EUB0000171b MET
[2] = system: Hepatocyte growth factor receptor (Homo sapiens), P08581 [D1228N]; experiment: as §1
[3] = system: Hepatocyte growth factor receptor (Homo sapiens), P08581 [Y1230A]; experiment: as §1
[4] = system: Hepatocyte growth factor receptor (Homo sapiens), P08581 [Y1230D]; experiment: as §1
Chain of Hepatocyte growth factor receptor (Homo sapiens), P08581 [Y1230D] (P08581 whole entry Y1230D): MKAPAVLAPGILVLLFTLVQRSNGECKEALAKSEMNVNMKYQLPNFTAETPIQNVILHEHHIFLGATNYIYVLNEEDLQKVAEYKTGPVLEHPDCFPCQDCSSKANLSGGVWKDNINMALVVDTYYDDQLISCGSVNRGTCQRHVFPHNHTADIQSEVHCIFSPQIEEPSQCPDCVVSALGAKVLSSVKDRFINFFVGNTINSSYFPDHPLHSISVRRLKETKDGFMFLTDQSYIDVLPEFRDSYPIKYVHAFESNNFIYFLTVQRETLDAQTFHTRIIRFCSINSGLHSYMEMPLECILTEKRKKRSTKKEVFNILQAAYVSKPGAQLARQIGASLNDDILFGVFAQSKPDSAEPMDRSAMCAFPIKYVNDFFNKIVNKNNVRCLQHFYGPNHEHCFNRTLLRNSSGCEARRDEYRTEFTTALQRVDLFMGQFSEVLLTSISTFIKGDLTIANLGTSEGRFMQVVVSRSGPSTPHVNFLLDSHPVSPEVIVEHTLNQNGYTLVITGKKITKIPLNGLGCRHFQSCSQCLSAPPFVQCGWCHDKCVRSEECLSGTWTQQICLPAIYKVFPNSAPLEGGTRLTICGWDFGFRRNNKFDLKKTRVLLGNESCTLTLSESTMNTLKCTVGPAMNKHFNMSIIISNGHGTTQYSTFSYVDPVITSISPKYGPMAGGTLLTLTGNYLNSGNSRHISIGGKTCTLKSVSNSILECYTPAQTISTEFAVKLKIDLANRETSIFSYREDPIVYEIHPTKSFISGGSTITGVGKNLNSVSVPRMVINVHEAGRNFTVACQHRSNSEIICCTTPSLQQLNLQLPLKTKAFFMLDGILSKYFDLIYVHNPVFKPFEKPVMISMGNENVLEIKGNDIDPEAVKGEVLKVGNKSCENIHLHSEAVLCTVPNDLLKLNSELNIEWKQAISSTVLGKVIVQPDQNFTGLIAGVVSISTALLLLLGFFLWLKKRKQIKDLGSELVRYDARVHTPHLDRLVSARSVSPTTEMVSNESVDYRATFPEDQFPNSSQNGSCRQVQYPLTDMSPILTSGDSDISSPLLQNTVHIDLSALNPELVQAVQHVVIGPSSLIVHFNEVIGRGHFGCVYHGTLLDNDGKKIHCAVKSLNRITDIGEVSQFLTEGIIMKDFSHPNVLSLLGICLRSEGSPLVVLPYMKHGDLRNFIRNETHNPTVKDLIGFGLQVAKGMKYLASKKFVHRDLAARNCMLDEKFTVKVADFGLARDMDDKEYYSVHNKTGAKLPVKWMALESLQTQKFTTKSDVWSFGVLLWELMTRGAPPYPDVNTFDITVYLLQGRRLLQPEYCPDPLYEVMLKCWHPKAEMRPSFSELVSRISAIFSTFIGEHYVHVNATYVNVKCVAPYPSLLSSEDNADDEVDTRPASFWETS

[5] = system: Hepatocyte growth factor receptor (Homo sapiens), P08581 [D1228H]; experiment: as §1
[6] = system: Hepatocyte growth factor receptor (Homo sapiens), P08581 [F1200I]; experiment: as §1
[7] = system: Hepatocyte growth factor receptor (Homo sapiens), P08581 [Y1230H]; experiment: as §1
[8] = system: Hepatocyte growth factor receptor (Homo sapiens), P08581 [M1250T]; experiment: as §1
[9] = system: Hepatocyte growth factor receptor (Homo sapiens), P08581 [Y1235D]; experiment: as §1
[10] = system: Hepatocyte growth factor receptor (Homo sapiens), P08581 [Y1230C]; experiment: as §1
Chain of Hepatocyte growth factor receptor (Homo sapiens), P08581 [Y1230C] (P08581 whole entry Y1230C): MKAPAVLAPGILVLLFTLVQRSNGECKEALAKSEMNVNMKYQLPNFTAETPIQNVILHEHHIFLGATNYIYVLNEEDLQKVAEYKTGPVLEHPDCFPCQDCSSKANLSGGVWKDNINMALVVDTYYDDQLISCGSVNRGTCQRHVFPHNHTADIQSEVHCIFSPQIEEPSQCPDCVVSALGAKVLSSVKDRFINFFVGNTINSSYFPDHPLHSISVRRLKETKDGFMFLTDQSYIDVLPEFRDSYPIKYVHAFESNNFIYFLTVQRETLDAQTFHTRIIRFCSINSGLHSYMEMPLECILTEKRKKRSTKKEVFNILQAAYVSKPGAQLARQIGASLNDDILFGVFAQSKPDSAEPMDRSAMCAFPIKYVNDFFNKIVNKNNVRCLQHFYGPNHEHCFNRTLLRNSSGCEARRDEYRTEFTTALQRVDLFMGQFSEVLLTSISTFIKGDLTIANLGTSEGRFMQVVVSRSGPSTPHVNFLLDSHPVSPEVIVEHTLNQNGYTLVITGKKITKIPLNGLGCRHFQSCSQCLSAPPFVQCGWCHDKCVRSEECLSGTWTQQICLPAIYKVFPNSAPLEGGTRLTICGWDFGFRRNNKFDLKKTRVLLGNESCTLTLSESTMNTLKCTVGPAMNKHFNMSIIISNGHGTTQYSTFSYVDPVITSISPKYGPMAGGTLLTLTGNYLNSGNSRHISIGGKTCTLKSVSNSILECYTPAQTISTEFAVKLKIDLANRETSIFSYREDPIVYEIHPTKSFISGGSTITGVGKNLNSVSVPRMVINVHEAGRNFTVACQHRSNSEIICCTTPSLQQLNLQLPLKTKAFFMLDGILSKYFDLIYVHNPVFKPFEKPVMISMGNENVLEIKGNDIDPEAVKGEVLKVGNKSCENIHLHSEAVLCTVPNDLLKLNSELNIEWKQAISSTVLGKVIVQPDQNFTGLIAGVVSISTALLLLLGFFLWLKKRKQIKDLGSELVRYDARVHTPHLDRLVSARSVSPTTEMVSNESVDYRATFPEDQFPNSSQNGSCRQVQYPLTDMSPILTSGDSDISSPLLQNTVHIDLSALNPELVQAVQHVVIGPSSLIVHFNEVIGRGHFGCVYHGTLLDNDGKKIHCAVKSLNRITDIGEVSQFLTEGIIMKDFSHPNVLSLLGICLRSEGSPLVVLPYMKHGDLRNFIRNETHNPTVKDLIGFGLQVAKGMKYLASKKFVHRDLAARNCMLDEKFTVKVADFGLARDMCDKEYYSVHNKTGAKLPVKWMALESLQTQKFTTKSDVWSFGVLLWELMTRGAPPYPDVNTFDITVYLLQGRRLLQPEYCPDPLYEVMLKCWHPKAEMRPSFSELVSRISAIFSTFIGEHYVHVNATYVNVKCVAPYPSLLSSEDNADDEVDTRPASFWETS

[11] = target: BMP-2-inducible protein kinase (Homo sapiens) (UniProt Q9NSY1); experiment: Selectivity interaction (KinomeScan (DiscoverX)) EUB0000666a BMP2K; conditions: at 10 µM
[12] = target: T1, Serine/threonine-protein kinase Nek2 (Homo sapiens) (UniProt P51955); experiment: Selectivity interaction (Millipore kinase profiler) EUB0000124b NEK2; conditions: at 10 µM
T1 sequence (whole entry): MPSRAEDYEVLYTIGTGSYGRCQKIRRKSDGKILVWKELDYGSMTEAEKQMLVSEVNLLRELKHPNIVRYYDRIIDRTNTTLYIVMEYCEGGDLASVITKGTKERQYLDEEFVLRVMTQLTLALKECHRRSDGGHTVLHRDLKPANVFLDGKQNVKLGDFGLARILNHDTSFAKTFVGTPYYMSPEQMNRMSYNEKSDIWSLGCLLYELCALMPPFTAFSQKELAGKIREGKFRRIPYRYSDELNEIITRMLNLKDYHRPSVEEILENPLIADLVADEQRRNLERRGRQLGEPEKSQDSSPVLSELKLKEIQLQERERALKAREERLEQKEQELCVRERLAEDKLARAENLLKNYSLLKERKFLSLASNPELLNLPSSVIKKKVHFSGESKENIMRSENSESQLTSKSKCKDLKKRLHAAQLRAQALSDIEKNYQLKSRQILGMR

[13] = target: T2, Inhibitor of nuclear factor kappa-B kinase subunit alpha (Homo sapiens) (UniProt O15111); experiment: Selectivity interaction (Millipore kinase profiler) EUB0000124b CHUK; conditions: at 10 µM
T2 sequence (whole entry): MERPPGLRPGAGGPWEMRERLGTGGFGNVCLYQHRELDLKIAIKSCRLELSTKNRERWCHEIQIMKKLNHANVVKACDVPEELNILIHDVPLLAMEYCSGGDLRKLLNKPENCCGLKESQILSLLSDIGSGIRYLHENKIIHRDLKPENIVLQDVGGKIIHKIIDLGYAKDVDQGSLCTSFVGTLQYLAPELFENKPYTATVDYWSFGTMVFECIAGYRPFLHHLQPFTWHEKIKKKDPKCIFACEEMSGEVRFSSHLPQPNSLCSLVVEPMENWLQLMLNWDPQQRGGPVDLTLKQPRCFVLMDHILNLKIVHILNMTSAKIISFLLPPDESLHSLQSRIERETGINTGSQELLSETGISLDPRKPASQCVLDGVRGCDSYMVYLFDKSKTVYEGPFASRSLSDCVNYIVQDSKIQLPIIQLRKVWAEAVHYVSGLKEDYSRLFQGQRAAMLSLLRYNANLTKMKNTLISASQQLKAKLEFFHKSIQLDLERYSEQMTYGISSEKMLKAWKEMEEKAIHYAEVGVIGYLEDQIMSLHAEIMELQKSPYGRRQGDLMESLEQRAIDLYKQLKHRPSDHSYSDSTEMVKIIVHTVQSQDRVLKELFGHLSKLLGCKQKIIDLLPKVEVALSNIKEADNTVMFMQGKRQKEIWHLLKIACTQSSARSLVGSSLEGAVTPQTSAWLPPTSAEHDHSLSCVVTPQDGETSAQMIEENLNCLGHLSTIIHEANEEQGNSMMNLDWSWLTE

[14] = target: Ribosomal protein S6 kinase alpha-6 (Homo sapiens, UniProt Q9UK32); conditions: at 10 µM
[15] = target: CDK7/Cyclin H/MNAT1 (Homo sapiens) (UniProt P51946+P50613+P51948); experiment: Selectivity interaction (Kinase panel (Invitrogen)) EUB0000639a CDK7; format: protein-complex assay; conditions: at 200 nM
[16] = target: Interleukin-1 receptor-associated kinase 1 (Homo sapiens) (UniProt P51617); experiment: Selectivity interaction (Kinase panel (Invitrogen)) EUB0000639a IRAK1; conditions: at 200 nM
Chain of Interleukin-1 receptor-associated kinase 1 (Homo sapiens) (P51617 whole entry, looked up): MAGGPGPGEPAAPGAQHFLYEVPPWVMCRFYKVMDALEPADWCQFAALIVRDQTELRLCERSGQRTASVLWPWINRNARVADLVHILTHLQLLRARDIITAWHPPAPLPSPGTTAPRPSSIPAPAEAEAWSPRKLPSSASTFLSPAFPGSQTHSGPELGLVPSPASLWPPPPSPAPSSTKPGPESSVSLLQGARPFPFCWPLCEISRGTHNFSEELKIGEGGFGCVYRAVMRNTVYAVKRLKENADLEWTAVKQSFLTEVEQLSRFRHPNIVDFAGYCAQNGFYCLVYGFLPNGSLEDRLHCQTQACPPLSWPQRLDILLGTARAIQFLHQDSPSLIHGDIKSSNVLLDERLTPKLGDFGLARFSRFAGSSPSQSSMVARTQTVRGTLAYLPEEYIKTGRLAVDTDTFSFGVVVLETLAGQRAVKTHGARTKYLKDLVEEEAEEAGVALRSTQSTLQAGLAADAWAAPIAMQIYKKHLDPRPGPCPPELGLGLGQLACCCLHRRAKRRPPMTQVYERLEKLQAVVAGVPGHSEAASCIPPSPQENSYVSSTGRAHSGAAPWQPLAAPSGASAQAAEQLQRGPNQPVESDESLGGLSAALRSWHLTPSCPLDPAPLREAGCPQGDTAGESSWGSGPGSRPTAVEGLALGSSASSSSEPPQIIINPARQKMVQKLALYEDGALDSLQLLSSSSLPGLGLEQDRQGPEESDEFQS

[17] = Selectivity interaction (ActivX KiNativ screen (kinase selectivity in THP-1 cell lysates)) EUB0000639a STLK6; conditions: Selectivity number of off-targets 5; Selectivity number of targets 283; Source Knowledge https://pubmed.ncbi.nlm.nih.gov/28498658/; at 5 µM
[18] = target: T3, Mitogen-activated protein kinase 13 (Homo sapiens) (UniProt O15264); experiment: Selectivity interaction (SelectScreen profiling (Invitrogen)) EUB0000607a MAPK13; conditions: at 2 µM
T3 sequence (whole entry): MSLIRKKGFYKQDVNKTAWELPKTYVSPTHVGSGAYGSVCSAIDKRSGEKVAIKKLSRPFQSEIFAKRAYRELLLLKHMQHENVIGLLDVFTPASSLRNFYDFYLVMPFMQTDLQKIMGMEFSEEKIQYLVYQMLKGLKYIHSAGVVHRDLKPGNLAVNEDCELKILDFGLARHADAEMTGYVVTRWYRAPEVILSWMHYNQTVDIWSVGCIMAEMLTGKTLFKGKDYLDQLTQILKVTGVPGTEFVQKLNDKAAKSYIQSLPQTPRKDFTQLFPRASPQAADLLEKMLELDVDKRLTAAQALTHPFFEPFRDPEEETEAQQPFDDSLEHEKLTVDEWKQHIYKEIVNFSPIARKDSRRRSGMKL

[19] = target: 5'-AMP-activated protein kinase catalytic subunit alpha-2 (Homo sapiens) (UniProt P54646); experiment: Selectivity interaction (KinomeScan (DiscoverX)) EUB0000595a PRKAA2; conditions: at 10 µM
[20] = system: Tyrosine-protein kinase ABL1 (Homo sapiens), P00519 [Q252H]; experiment: Selectivity interaction (KinomeScan (DiscoverX)) EUB0000618a ABL1; conditions: at 10 µM
[21] = target: Serine/threonine-protein kinase 25 (Homo sapiens) (UniProt O00506); experiment: Selectivity interaction (ActivX KiNativ screen (ex vivo kinase selectivity in human PBMCs)) EUB0001619a STK25; format: cell-based; conditions: PBMC, at 1 µM

Chain of Hepatocyte growth factor receptor (Homo sapiens), P08581 [Y1230A] (P08581 whole entry Y1230A): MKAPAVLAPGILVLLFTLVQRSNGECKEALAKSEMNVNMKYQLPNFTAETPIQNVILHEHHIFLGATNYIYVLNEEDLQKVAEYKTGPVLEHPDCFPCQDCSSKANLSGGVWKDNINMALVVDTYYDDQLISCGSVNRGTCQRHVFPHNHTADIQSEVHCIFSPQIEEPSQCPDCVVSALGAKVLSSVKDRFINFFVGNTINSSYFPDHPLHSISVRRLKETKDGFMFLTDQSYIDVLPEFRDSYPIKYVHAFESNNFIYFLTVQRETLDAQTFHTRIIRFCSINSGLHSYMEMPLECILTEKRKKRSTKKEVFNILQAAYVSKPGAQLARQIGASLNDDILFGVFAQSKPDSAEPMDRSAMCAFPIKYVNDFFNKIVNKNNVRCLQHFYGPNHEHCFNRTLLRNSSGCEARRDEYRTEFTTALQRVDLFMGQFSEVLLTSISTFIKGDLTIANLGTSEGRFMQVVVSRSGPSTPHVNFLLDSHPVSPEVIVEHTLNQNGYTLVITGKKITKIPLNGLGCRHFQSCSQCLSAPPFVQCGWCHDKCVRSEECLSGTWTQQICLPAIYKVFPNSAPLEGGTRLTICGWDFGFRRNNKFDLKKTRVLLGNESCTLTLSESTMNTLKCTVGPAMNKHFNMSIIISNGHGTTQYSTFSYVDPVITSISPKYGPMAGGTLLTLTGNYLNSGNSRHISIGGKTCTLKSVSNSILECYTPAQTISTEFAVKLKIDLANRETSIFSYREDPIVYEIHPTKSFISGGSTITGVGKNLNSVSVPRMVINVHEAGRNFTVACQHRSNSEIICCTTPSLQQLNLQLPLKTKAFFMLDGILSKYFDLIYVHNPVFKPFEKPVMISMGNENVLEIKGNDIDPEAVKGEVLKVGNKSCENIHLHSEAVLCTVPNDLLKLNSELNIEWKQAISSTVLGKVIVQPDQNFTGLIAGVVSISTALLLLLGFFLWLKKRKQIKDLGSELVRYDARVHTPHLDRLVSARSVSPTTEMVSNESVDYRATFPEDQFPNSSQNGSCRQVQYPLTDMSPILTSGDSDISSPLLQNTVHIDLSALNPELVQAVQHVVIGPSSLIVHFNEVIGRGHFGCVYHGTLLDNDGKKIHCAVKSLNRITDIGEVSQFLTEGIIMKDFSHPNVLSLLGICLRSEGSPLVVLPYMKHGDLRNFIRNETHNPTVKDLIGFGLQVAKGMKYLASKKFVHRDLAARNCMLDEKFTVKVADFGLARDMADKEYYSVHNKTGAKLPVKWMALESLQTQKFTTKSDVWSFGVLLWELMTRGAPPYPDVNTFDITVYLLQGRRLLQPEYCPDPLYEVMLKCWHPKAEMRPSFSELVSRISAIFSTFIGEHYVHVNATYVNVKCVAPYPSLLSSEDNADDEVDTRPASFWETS

With `C=CC(=O)Nc1cccc(C(=O)Nc2ccc(Nc3cc(-c4[nH]c(SC)nc4C)ccn3)cc2)c1` the % of control ([1]; at 1 µM) was 93%, the % of control ([1]; at 5 µM) was 78% and the % of control ([2]; at 1 µM) was 89%. For the same compound, the % of control ([2]; at 5 µM) was 74%, the % of control ([3]; at 1 µM) was 97% and the % of control ([3]; at 5 µM) was 85%. For the same compound, the % of control ([4]; at 1 µM) was 88%, the % of control ([4]; at 5 µM) was 73% and the % of control ([5]; at 1 µM) was 76%. The % of control ([5]; at 5 µM) was 65%, the % of control ([6]; at 1 µM) was 81% and the % of control ([6]; at 5 µM) was 59%. The % of control ([7]; at 1 µM) was 92%, the % of control ([7]; at 5 µM) was 72% and the % of control ([8]; at 1 µM) was 88%. The % of control ([8]; at 5 µM) was 65%, the % of control ([9]; at 1 µM) was 105% and the % of control ([9]; at 5 µM) was 86%. For the same compound, the % of control ([10]; at 1 µM) was 90% and the % of control ([10]; at 5 µM) was 76%.

`O=C(NOC[C@H](O)CO)c1ccc(F)c(F)c1Nc1ccc(I)cc1F` showed a % of control [11] of 91%.

For `CC(=O)Nc1cccc(-n2c(=O)n(C3CC3)c(=O)c3c(Nc4ccc(I)cc4F)n(C)c(=O)c(C)c32)c1`, the % of control [12] was 119% and the % of control [13] was 123%.

Compound `Cc1cc([C@@H](C)Nc2ccccc2C(=O)O)c2nc(N3CCOCC3)cc(=O)n2c1` [AZD-6482] has a % of control [14] of 100%.

For `CC[C@@H]1[C@H](F)C(=O)N[C@@H]1COc1nccc2cc(C(N)=O)c(OC)cc12` [ZIMLOVISERTIB], the % of inhibition [15] was 2.84%, the % of inhibition [16] was 91.4% and the “% of inhibition” value [17] was -4.2%.

For `CNC(=O)Nc1ccc(-c2nc(N3CC4CCC(C3)O4)c3cnn(C4CCC5(CC4)OCCO5)c3n2)cc1`, the % of inhibition [18] was 4%.

Work on `COCC(=O)NC/C=C/c1ccc2ncnc(Nc3ccc(Oc4ccc(C)nc4)c(C)c3)c2c1` [CP-724714] yielded a % of control [19] of 100%.

`O[C@H]1CC[C@H](Nc2ncc3nc(Nc4c(F)cc(F)cc4F)n([C@H]4CCOC4)c3n2)CC1` showed a % of control [20] of 36%.

Compound `N#Cc1cccc(-c2c[nH]c3ncnc(N4CCOCC4)c23)c1` has a % of inhibition [21] of 61%.
